{
  "source": "patent US10308636B2",
  "about": "“Aromatic heterocyclic compound” (MITSUBISHI TANABE PHARMA CORPORATION, priority 2012, dated 2019)",
  "key": {"Male ICR mice": {"system": "Male ICR mice", "test": "Triglyceride (TG) elevation-suppressing action in plasma by lipid administration", "format": "in vivo, mouse", "details": "5 mg/kg oral, fasted ICR mice, lipid (Intralipos 20%, 10 mL/kg) 30 minutes after compound, plasma TG 2 hours after lipid, relative to solvent control", "experimental": "Male ICR mice, 6 to 9 weeks old, were fasted overnight, and a test compound was suspended in 0.2% carboxymethylcellulose solution and the suspension was orally administered. After 30 minutes, lipid (Intralipos, 20%, Otsuka Pharmaceutical, 10 mL/kg) was orally administered. Blood was sampled through the caudal vein immediately before and 2 hours after the administration of the lipid to obtain plasma. TG in the plasma was determined by using Triglyceride E-Test Wako (Wako Pure Chemical), and the elevation value of TG in the plasma by the lipid administration was calculated. By using the plasma TG elevation value in the solvent control group as the control, the plasma TG elevation-suppressing ratio was calculated in the test compound administrating group."}, "Male C57BL/6J mice": {"system": "Male C57BL/6J mice", "test": "Food intake-suppressing action (high fat diet)", "format": "in vivo, mouse", "details": "5 mg/kg oral, fasted C57BL/6J mice, food intake for 4 hours, relative to solvent control", "experimental": "Male C57BL/6J mice, 7 to 10 weeks old, were fasted overnight, and a test compound was suspended in 0.2% carboxymethylcellulose solution and the suspension was orally administered. Immediately, the animals were given high fat diet (Oriental Yeast, 60 cal % fat) and allowed to take freely. The food intake for 4 hours was determined, and the decrease ratio of the food intake (food intake-suppressing ratio) was calculated in the test compound administrating group, relative to the food intake in the solvent control group as a control."}, "Male KK-Ay mice": {"system": "Male KK-Ay mice", "test": "Body weight gain-suppressing, hypoglycemic and plasma insulin-decreasing action in KK-Ay mouse", "format": "in vivo", "details": "30 mg/kg/day oral once a day for 2 weeks, KK-Ay mice on high fat diet; for Hypoglycemic action (30 mg/kg/day): blood sugar after overnight fast; for Hypoglycemic action (30 mg/kg/day) / Plasma insulin-decreasing action (30 mg/kg/day): relative to solvent control; for Plasma insulin-decreasing action (30 mg/kg/day): plasma insulin after overnight fast; for Body weight gain-suppressing action (30 mg/kg/day): relative to body weight gain of solvent control as 100%", "procedure": "Male KK-Ay mice, 8 weeks old, were given high fat diet (Oriental Yeast, 60 cal % fat), the test compound was suspended in 0.2% carboxymethylcellulose solution and the suspension was orally administered once a day. After the oral administration was repeated for 2 weeks, the body weight gain-suppressing ratio of the test compound was calculated, relative to the body weight gain of the solvent control group during the test period as 100%. After the final administration, the animals were fasted overnight, and blood was sampled through the caudal vein. The blood sugar and the insulin in the plasma were determined by using Glucose C II-Test Wako (Wako Pure Chemical) and Mouse Insulin Measurement Kit (Morinaga Institute of Biological Science), respectively."}},
  "data": [
    {"smiles": "CC(C)(COc1ccc(-c2ccc(-c3ncc(CCOc4ccccc4)[nH]3)cn2)cc1)C(=O)O", "note": "[Example 1-58]", "values": [
      {"measurement": "Plasma TG elevation suppressing ratio (5 mg/kg)", "setting": "Male ICR mice", "value": 66, "unit": "%"},
      {"measurement": "Food intake-suppressing ratio (5 mg/kg)", "setting": "Male C57BL/6J mice", "value": 68, "unit": "%"}
    ]},
    {"smiles": "COC(=O)C(C)(C)COc1ccc(-c2ccc(-c3nc(-c4noc(C)n4)cn3COCC[Si](C)(C)C)cn2)cc1", "note": "[Example 7]", "values": [
      {"measurement": "Hypoglycemic action (30 mg/kg/day)", "setting": "Male KK-Ay mice", "value": 42, "unit": "%"},
      {"measurement": "Plasma insulin-decreasing action (30 mg/kg/day)", "setting": "Male KK-Ay mice", "value": 34, "unit": "%"},
      {"measurement": "Body weight gain-suppressing action (30 mg/kg/day)", "setting": "Male KK-Ay mice", "value": 34, "unit": "%"}
    ]},
    {"smiles": "CC(C)(COc1ccc(-c2ccc(-c3nc(COCc4ccccc4)c[nH]3)cn2)cc1)C(=O)O", "note": "[Example 10]", "values": [
      {"measurement": "Hypoglycemic action (30 mg/kg/day)", "setting": "Male KK-Ay mice", "value": 37, "unit": "%"},
      {"measurement": "Plasma insulin-decreasing action (30 mg/kg/day)", "setting": "Male KK-Ay mice", "value": 40, "unit": "%"},
      {"measurement": "Body weight gain-suppressing action (30 mg/kg/day)", "setting": "Male KK-Ay mice", "value": 32, "unit": "%"}
    ]},
    {"smiles": "CCOCc1nc(-c2ccc(-c3ccc(OCC(C)(C)C(=O)O)cc3)nc2)[nH]c1Cl", "note": "[Example 31-2]", "values": [
      {"measurement": "Plasma TG elevation suppressing ratio (5 mg/kg)", "setting": "Male ICR mice", "value": 74, "unit": "%"},
      {"measurement": "Food intake-suppressing ratio (5 mg/kg)", "setting": "Male C57BL/6J mice", "value": 74, "unit": "%"},
      {"measurement": "Hypoglycemic action (30 mg/kg/day)", "setting": "Male KK-Ay mice", "value": 55, "unit": "%"},
      {"measurement": "Plasma insulin-decreasing action (30 mg/kg/day)", "setting": "Male KK-Ay mice", "value": 45, "unit": "%"},
      {"measurement": "Body weight gain-suppressing action (30 mg/kg/day)", "setting": "Male KK-Ay mice", "value": 41, "unit": "%"}
    ]},
    {"smiles": "Cc1cc(OCC(C)(C)C(=O)O)ncc1-c1ccc(-c2nc(C#N)c[nH]2)cc1", "note": "[Example 32-2]", "values": [
      {"measurement": "Plasma TG elevation suppressing ratio (5 mg/kg)", "setting": "Male ICR mice", "value": 63, "unit": "%"},
      {"measurement": "Food intake-suppressing ratio (5 mg/kg)", "setting": "Male C57BL/6J mice", "value": 65, "unit": "%"}
    ]},
    {"smiles": "O=C(O)Cc1ccc(C2CCN(c3ccc(-c4nc(C(F)(F)F)c[nH]4)cn3)CC2)cc1", "note": "[Example 43-2]", "values": [
      {"measurement": "Plasma TG elevation suppressing ratio (5 mg/kg)", "setting": "Male ICR mice", "value": 66, "unit": "%"},
      {"measurement": "Food intake-suppressing ratio (5 mg/kg)", "setting": "Male C57BL/6J mice", "value": 82, "unit": "%"}
    ]},
    {"smiles": "Nc1nnc(-c2ccc(Br)cc2)o1", "note": "[Example 61]", "values": [
      {"measurement": "Hypoglycemic action (30 mg/kg/day)", "setting": "Male KK-Ay mice", "value": 44, "unit": "%"},
      {"measurement": "Plasma insulin-decreasing action (30 mg/kg/day)", "setting": "Male KK-Ay mice", "value": 50, "unit": "%"},
      {"measurement": "Body weight gain-suppressing action (30 mg/kg/day)", "setting": "Male KK-Ay mice", "value": 36, "unit": "%"}
    ]},
    {"smiles": "CCOc1nc(-c2ccc(-c3ccc(O[C@H]4CC[C@@H](C(=O)OCC)CC4)nc3)cc2)nn1COCC[Si](C)(C)C", "note": "[Example 67]", "values": [
      {"measurement": "Hypoglycemic action (30 mg/kg/day)", "setting": "Male KK-Ay mice", "value": 47, "unit": "%"},
      {"measurement": "Plasma insulin-decreasing action (30 mg/kg/day)", "setting": "Male KK-Ay mice", "value": 14, "unit": "%"},
      {"measurement": "Body weight gain-suppressing action (30 mg/kg/day)", "setting": "Male KK-Ay mice", "value": 43, "unit": "%"}
    ]},
    {"smiles": "COC(=O)C(C)(C)COc1ccc(-c2ccc(-c3nc(OCC(F)(F)C(F)(F)F)n(COCC[Si](C)(C)C)n3)cc2)cn1", "note": "[Example 74]", "values": [
      {"measurement": "Hypoglycemic action (30 mg/kg/day)", "setting": "Male KK-Ay mice", "value": 32, "unit": "%"},
      {"measurement": "Plasma insulin-decreasing action (30 mg/kg/day)", "setting": "Male KK-Ay mice", "value": 29, "unit": "%"},
      {"measurement": "Body weight gain-suppressing action (30 mg/kg/day)", "setting": "Male KK-Ay mice", "value": 41, "unit": "%"}
    ]},
    {"smiles": "NC(=O)c1ccc(Br)cc1F", "note": "[Example 78]", "values": [
      {"measurement": "Hypoglycemic action (30 mg/kg/day)", "setting": "Male KK-Ay mice", "value": 57, "unit": "%"},
      {"measurement": "Plasma insulin-decreasing action (30 mg/kg/day)", "setting": "Male KK-Ay mice", "value": 69, "unit": "%"},
      {"measurement": "Body weight gain-suppressing action (30 mg/kg/day)", "setting": "Male KK-Ay mice", "value": 56, "unit": "%"}
    ]},
    {"smiles": "COc1ccc(-c2n[nH]c(-c3ccc(-c4ccc(OCC(C)(C)C(=O)O)nc4)cc3)n2)cc1", "note": "[Example 110]", "values": [
      {"measurement": "Plasma TG elevation suppressing ratio (5 mg/kg)", "setting": "Male ICR mice", "value": 73.0, "unit": "%"},
      {"measurement": "Food intake-suppressing ratio (5 mg/kg)", "setting": "Male C57BL/6J mice", "value": 68, "unit": "%"}
    ]}
  ]
}
